In US7625889B2, “Substituted bis aryl and heteroaryl compounds as selective 5HT2A antagonists” (Aventis Pharmaceuticals Inc., priority 2005, dated 2009):
pKi: −log10 of the molar value. Where a name gives a salt, the structure may show the parent alone.

Molecular target: T1, human 5HT2A receptor (Homo sapiens, UniProt P28223)
T1 construct: expressed in transfected cells
Assay: Receptor Binding Assay, 5HT2A ([3H]N-methyl spiperone)
Settings: BHK cells expressing human 5HT2A receptor, 2.5 nM [3H]N-methyl spiperone, 37° C.
Procedure: Cell Culture: BHK cells stably expressing the human 5HT2A receptor were maintained in Dulbecco's Modified Eagle's Medium supplemented with […] Geneticin, 1% Sodium Pyruvate, 1% Pen-Strep and 10% Fetal Calf Serum, and treated with 5 mM sodium butyrate for 24 h to increase receptor expression before harvesting. Cells were harvested by mechanical scraping, washed with Phosphate Buffered Saline, and stored at −80° C. in 10% DMSO in 1 mg/mil aliquots until used. Protein determination was made according to Lowry.
Receptor Binding Assays: The 5HT2A and D2L assays were conducted at 37° C. in a Tris buffer containing salts (50 mM Tris Buffer, pH 7.7; 120 mM NaCl; 5 mM KCl; 2 mM CaCl2; 1 mM MgCl2). Cell membranes (previously prepared and frozen) were rapidly thawed. Membranes were diluted to an appropriate concentration (to produce 100 μg protein/assay point for 5HT2A, and 58 μg protein/assay point for D2L) in Tris buffer and homogenized. Assays were conducted on 96-well plates, using 2.5 and 1 nM [^3H]N-methyl spiperone as radioligand for 5HT2A and D2L assays, respectively. Plates were incubated at 37° C. in a shaking water bath for 30 and 60 min, for 5HT2A and D2L, respectively. Nonspecific binding was defined using 100 μM methylsergide and eticlopride, for 5HT2A and D2L, respectively.
Assays were terminated by rapid filtration through Millipore MAFB or MAFC (5HT2C) filter plates (presoaked in 50 mM Tris HCl, pH 7.7, with 0.1% Brij) using a Millipore Cell Harvester. The filter plates were then washed with ice-cold 50 mM Tris buffer, pH 7.7, and allowed to dry overnight. 50 μl of Microscint scintillation cocktail were added and the plates were counted in a Packard Topcount scintillation counter.
IC50 and Ki calculations were performed using nonlinear regression one-site competition analysis (GraphPad, Prism), with top and bottom limits held constant at 0% and 100% inhibition, respectively. The percent inhibition at each drug concentration was the average of duplicate determinations. Except where indicated, each determination was performed 2 to 5 times.

T1 sequence (P28223 whole entry): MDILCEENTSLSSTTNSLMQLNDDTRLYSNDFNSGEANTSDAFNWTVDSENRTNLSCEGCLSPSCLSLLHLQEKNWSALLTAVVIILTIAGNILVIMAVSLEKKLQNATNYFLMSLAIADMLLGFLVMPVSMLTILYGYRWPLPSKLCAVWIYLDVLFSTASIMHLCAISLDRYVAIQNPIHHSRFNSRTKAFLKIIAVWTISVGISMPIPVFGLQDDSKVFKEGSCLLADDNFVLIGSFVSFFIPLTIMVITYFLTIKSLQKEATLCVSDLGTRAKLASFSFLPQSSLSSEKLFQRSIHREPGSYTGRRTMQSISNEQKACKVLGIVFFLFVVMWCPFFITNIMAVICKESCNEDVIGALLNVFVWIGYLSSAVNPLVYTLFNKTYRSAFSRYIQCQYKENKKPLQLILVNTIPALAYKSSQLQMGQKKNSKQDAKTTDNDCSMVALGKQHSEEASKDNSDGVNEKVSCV

Row | Compound | pKi
1 | CN1CCN(Cc2cc(-c3ccc4[nH]ccc4c3)ccc2F)C(c2cccnc2)C1 (stereo not shown) [Example 10] | 7.86
2 | O=C(c1ccc(F)cc1)N(Cc1cc(-c2ccc3[nH]c(=O)oc3c2)ccc1F)C1CN2CCC1CC2 (stereo not shown) [Example 78] | 9.12
3 | CCN1CCC[C@H]1CN(Cc1ccc(F)cc1)Cc1cc(-c2ccc3[nH]nnc3c2)ccc1F [Example 87, [5-(1H-Benzotriazol-5-yl)-2-fluoro-benzyl]-(1-ethyl-pyrrolidin-2S-ylmethyl)-(4-fluoro-benzyl)-amine hydrochloride] | 7.85
4 | Fc1ccc([C@H]2CNCCN2Cc2cc(-c3ccc4[nH]ccc4c3)co2)cc1 [Example 115, 5-{5-[2S-(4-Fluoro-phenyl)-piperazin-1-ylmethyl]-furan-3-yl}-1H-indole] | 8.54
5 | Fc1ccc(CN(Cc2cc(-c3ccc4[nH]ncc4c3)ccc2F)C[C@@H]2CCCN2)cc1 [Example 81] | 8.70
6 | Fc1ccc([C@H]2CNCCN2Cc2cncc(-c3ccc4[nH]ccc4c3)c2)cc1 [Example 114, 5-{5-[2S-(4-Fluoro-phenyl)-piperazin-1-ylmethyl]-pyridin-3-yl}-1H-indole acetate] | 9.32
7 | Fc1ccc(CN(Cc2cc(-c3ccc4[nH]nnc4c3)ccc2F)C[C@H]2CCCN2)cc1 [Example 80, [5-(1H-Benzothiazol-5-yl)-2-fluoro-benzyl]-(4-fluoro-benzyl)-pyrrolidin-2R-ylmethyl-amine trihydrochloride] | 7.83
8 | CN1CCN(Cc2cccc(-c3ccc4[nH]nnc4c3)c2)CC1 [Example 9] | 6.64
9 | O=C(c1ccc(F)cc1)N(Cc1cc(-c2ccc3[nH]nnc3c2)ccc1F)C1CCN(C2CC2)CC1 [Example 68, N-[5-(1H-Benzotriazol-5-yl)-2-fluoro-benzyl]-N-(1-cyclopropyl-piperidin-4-yl)-4-fluoro-benzamide] | 8.50
10 | CN1CCCN(Cc2cccc(-c3ccc4[nH]ccc4c3)c2)CC1 [Example 121, 5-[3-(4-Methyl-[1,4]diazepan-1-ylmethyl)-phenyl]-1H-indole] | 7.09
11 | CN1C2CCC1CC(N(Cc1cc(-c3ccc4[nH]ncc4c3)ccc1F)C(=O)c1ccc(F)cc1)C2 (stereo not shown) [Example 58] | 8.91
12 | CN1CCC(N(Cc2ccc(F)cc2)Cc2cc(-c3ccc4[nH]ncc4c3)ccc2F)CC1 [Example 90, (4-Fluoro-benzyl)-[2-fluoro-5-(1H-indazol-5-yl)-benzyl]-(1-methyl-piperidin-4-yl)-amine] | 9.38
13 | O=C(c1ccc(F)cc1)N(Cc1cc(-c2ccc3[nH]ccc3c2)ccc1F)CC12CCN(CC1)CC2 [Example 38] | 7.84
14 | CN1CCN(Cc2cc(-c3ccc4[nH]ccc4c3)ccc2F)C(c2ccccn2)C1 (stereo not shown) [Example 13] | 8.48
15 | CN1CCN(Cc2cc(-c3ccc4[nH]ccc4c3)ccc2F)C(c2ccc(C(F)(F)F)cc2)C1 (stereo not shown) [Example 15] | 7.86
16 | CC(C)Oc1cccc(C(=O)N(Cc2cc(-c3ccc4[nH]ccc4c3)ccc2F)C2CCN(C)CC2)c1 [Example 111, N-[2-Fluoro-5-(1H-indol-5-yl)-benzyl]-3-isopropoxy-N-(1-methyl-piperidin-4-yl)-benzamide] | 7.07
17 | CN1CCC(N(Cc2cc(-c3ccc4[nH]ccc4c3)ccc2F)C(=O)c2cccs2)CC1 [Example 29] | 9.15
18 | CN1CCN(Cc2cc(-c3ccc4[nH]cc(C#N)c4c3)ccc2F)[C@@H](c2ccc(F)cc2)C1 [Example 175, 5-{4-Fluoro-3-[2S-(4-fluoro-phenyl)-4-methyl-piperazin-1-ylmethyl]-phenyl}-1H-indole-3-carbonitrile] | 8.49
19 | CN1CCC(N(Cc2cc(-c3ccc4[nH]ccc4c3)ccc2F)C(=O)c2ccnnc2)CC1 [Example 107, Pyridazine-4-carboxylic acid [2-fluoro-5-(1H-indol-5-yl)-benzyl]-(1-methyl-piperidin-4-yl)-amide] | 7.07
20 | N#Cc1c[nH]c2ccc(-c3ccc(F)c(CN4CCNC[C@@H]4c4ccc(F)cc4)c3)cc12 [Example 51] | 8.04
21 | O=C(c1ccc(F)cc1F)N(CCN1CCCC1)Cc1cc(-c2ccc3[nH]nnc3c2)ccc1F [Example 57] | 9.15
22 | Fc1ccc(CN(Cc2cc(-c3ccc4[nH]nnc4c3)ccc2F)C2CCNCC2)cc1 [Example 85, [5-(1H-Benzotriazol-5-yl)-2-fluoro-benzyl]-(4-fluoro-benzyl)-piperidin-4-yl-amine] | 9.38
23 | Fc1ccc(-c2ccc3[nH]nnc3c2)cc1CN(Cc1cccs1)C1CCNCC1 [Example 84, [5-(1H-Benzotriazol-5-yl)-2-fluoro-benzyl]-piperidin-4-yl-thiophen-2-ylmethyl-amine] | 9.43
24 | CN1CCN(C(=O)c2cc(-c3ccc4[nH]ccc4c3)ccc2F)[C@@H](c2ccc(F)cc2)C1 [Example 171, [2-Fluoro-5-(1H-indol-5-yl)-phenyl]-[2S-(4-fluoro-phenyl)-4-methyl-piperazin-1-yl]-methanone] | 7.07
25 | Fc1ccc([C@H]2CNCCN2Cc2cc(-c3ccc4[nH]nnc4c3)ccc2F)cc1 [Example 45] | 9.00
26 | CN1CCC(N(Cc2ccc(F)cc2)Cc2cc(-c3ccc4[nH]ncc4c3)co2)CC1 [Example 119, (4-Fluoro-benzyl)-[4-(1H-indazol-5-yl)-furan-2-ylmethyl]-(1-methyl-piperidin-4-yl)-amine] | 9.11

The remaining lines, values ahead:

Row | pKi | Compound
27 | 9.41 | O=C(c1ccc(F)cc1)N(CCN1CCCC1)Cc1cc(-c2ccc3[nH]nnc3c2)ccc1F [Example 101, N-[5-(1H-Benzotriazol-5-yl)-2-fluoro-benzyl]-4-fluoro-N-(2-pyrrolidin-1-yl-ethyl)-benzamide]
28 | 9.15 | CN1CCCC(N(Cc2cc(-c3ccc4[nH]ncc4c3)ccc2F)C(=O)c2ccc(F)cc2)C1 (stereo not shown) [Example 61]
29 | 8.85 | CN1CCN(Cc2ccc(-c3ccc4[nH]c(=O)oc4c3)o2)[C@@H](c2ccc(F)cc2)C1 [Example 14]
30 | 8.96 | CN(C)CCN(Cc1cccc(-c2ccc3[nH]c(=O)sc3c2)c1)C(=O)c1ccccc1 [Example 32]
31 | 8.19 | O=C(c1cccs1)N(CCN1CCCC1)Cc1cc(-c2ccc3[nH]nnc3c2)ccc1F [Example 56]
32 | 9.22 | O=C(c1ccc(F)cc1)N(CCCN1CCCC1)Cc1cc(-c2ccc3[nH]ncc3c2)ccc1F [Example 100, 4-Fluoro-N-[2-fluoro-5-(1H-indazol-5-yl)-benzyl]-N-(3-pyrrolidin-1-yl-propyl)-benzamide]
33 | 9.22 | CN1CCCC(N(Cc2cc(-c3ccc4[nH]ncc4c3)ccc2F)C(=O)c2ccc(F)cc2)C1 (stereo not shown) [Example 64]
34 | 9.17 | O=C(c1ccc(F)cc1)N(Cc1cc(-c2ccc3[nH]nnc3c2)ccc1F)C1CCNCC1 [Example 66]
35 | 9.24 | CN1CCC(N(Cc2ccc(F)c(-c3ccc4[nH]ccc4c3)c2)C(=O)c2ccc(F)cc2)CC1 [Example 40]
36 | 8.39 | CN(C)CCCN(Cc1cccc(-c2ccc3[nH]c(=O)sc3c2)c1)C(=O)c1ccccc1 [Example 36]
37 | 8.62 | CN(C)CCN(Cc1ccccc1)Cc1cccc(-c2ccc3[nH]c(=O)sc3c2)c1 [Example 2]
38 | 8.67 | CCN1CCC[C@H]1CN(Cc1cc(-c2ccc3[nH]nnc3c2)ccc1F)C(=O)c1ccc(F)cc1 [Example 53, N-[5-(1H-Benzotriazol-5-yl)-2-fluoro-benzyl]-N-(1-ethyl-pyrrolidin-2S-ylmethyl)-4-fluoro-benzamide]
39 | 8.96 | O=C(c1ccc(F)cc1)N(CCN1CCCC1)Cc1cncc(-c2ccc3[nH]ccc3c2)c1 [Example 39]
40 | 6.66 | CN(C)CCN(Cc1ccccc1)Cc1cccc(-c2ccc3[nH]c(=O)[nH]c3c2)c1 [Example 5]
41 | 9.11 | CN(C)CCN(Cc1cccc(-c2ccc3[nH]c(=O)oc3c2)c1)C(=O)c1ccc(Cl)cc1 [Example 30]
42 | 8.63 | CN(C)CCN(Cc1ccc(F)cc1)Cc1cc(-c2ccc3[nH]ccc3c2)ccc1F [Example 72]
43 | 9.40 | CN(C)CCN(Cc1ccc(F)cc1)Cc1cncc(-c2ccc3[nH]ncc3c2)c1 [Example 49]
44 | 8.39 | CN(C)CCN(Cc1cccc(-c2ccc3[nH]c(=O)sc3c2)c1)C(=O)c1ccc(Cl)cc1 [Example 37]
45 | 8.14 | CN(C)CCCN(Cc1ccccc1)Cc1cccc(-c2ccc3[nH]nnc3c2)c1 [Example 17, N-[3-(1H-Benzotriazol-5-yl)-benzyl]-N-benzyl-N′,N′-dimethyl-propane-1,3-diamine]
46 | 8.57 | CN(C)CCN(Cc1ccccc1)Cc1cccc(-c2ccc3[nH]ncc3c2)c1 [Example 6]
47 | 9.22 | O=c1[nH]c2ccc(-c3ccc(F)c(CN4CCNCC4c4cccs4)c3)cc2o1 (stereo not shown) [Example 43]
48 | 7.47 | CN(C)CCN(Cc1ccccc1)Cc1cccc(-c2ccc3[nH]c(=O)n(C)c(=O)c3c2)c1 [Example 4]
49 | 9.22 | CN(C)CCN(Cc1ccc(F)cc1)Cc1cncc(-c2ccc3[nH]c(=O)oc3c2)c1 [Example 48]
